Source: PubChem BioAssay AID2060509 (Molecular Pharmacology Branch, DTP, NCI, 2025)
“And” between values parts separate entries of the source, which are not always exact repeats. Equal entries are not always repeated.

System: 485176-168-R4-J1-PDC spheroids with HUVEC/MSC, viability
Assay: Anticancer human tumor 485176-168-R4-J1-PDC patient-derived pancreatic adenocarcinoma cell line growth inhibition [GQUAD]
Conditions: for viability, T/C: stronger effect = lower value
Description: DNA G-quadruplex Stabilizer Agents in Combinations in Complex Spheroids
A high-throughput screen of multi-cell type tumor spheroids was designed to identify active combinations of DNA G-quadruplex stabilizer agents and targeted small molecules. Complex spheroids include a stromal component modeled by human endothelial cells (HUVEC) and fibroblasts modeled by human mesenchymal stem cells (MSCs). The concentration ranges selected for each drug and investigational agent were based upon clinically achievable concentrations if the clinical Cmax of the agent was known.
Compounds. The drugs and investigational agents: pidnarulex (CX-5461; NSC782164), APTO-253 (NSC789042), BRACO-19 (NSC847499), peposertib (NSC802822), ceralasertib (NSC780249), elimusertib (NSC800525), camonsertib (NSC841442), AZD-1390 (NSC803789), olaparib (NSC753686), talazoparib (NSC767125), ART-558 (NSC835418), sotorasib (NSC818433), MRTX-1133 (NSC836407), SN-38 (NSC673596), topotecan (NSC609699), etoposide (NSC141540), doxorubicin (NSC123127), gemcitabine (NSC613327), 5-fluorouracil (NSC19893), paclitaxel (NSC125973), vemurafenib (NSC761431), panobinostat (NSC761190), R-306465 (JNJ-16241199; NSC773264), adavosertib (NSC754352), TP-3654 (NSC805149), carboplatin (NSC241240), KSQ-4279 (NSC840948), and staurosporine (NSC755774) were obtained from the National Cancer Institute (NCI) Developmental Therapeutics Program Chemical Repository (34). The FDA-approved anticancer drug set is available from the NCI Developmental Therapeutics Program. […] The stock solutions were prepared in dimethyl sulfoxide (DMSO, Sigma-Aldrich, St. Louis, MO, cat. D2650) at 800-fold the tested concentration and stored at -70 degrees C prior to their use. All drugs and investigational agents were tested over a range starting from a high concentration at or near the clinical Cmax and decreasing in half-log increments. If the clinical Cmax for an agent had not been determined, the highest concentration tested was 10 microM.
2.3 Cell Culture. All cells were maintained in an incubator at 37 degrees C and 5% CO2 with 95% humidity. The PDC lines were cultured according to standard operating procedures established by the NCI PDMR. All PDCs were thawed and cultured in Matrigel-coated flasks prepared with a working solution of 1X Ham's F-12 nutrient mix, without supplementation (Invitrogen, cat. 11765054), 100 U/mL penicillin-streptomycin (Invitrogen, cat. 15140122), and 2.5% Matrigel (Corning Inc., cat. 354248) for the first three passages. The 857933-349-R-J2-PDC line was cultured in 6C/Colon 1B media, which includes advanced DMEM/F-12 (Thermo Fisher Scientific, cat. 12634028), 10 mM HEPES (Thermo Fisher Scientific, cat. 15630080), 1X GlutaMAX supplement (Thermo Fisher Scientific, cat. 35050061), 0.1 mg/mL primocin (InvivoGen, cat. ant-pm-2), 10% defined fetal bovine serum, heat inactivated (HyClone Laboratories Inc., cat. SH30070.03HI), 50% L-WRN conditioned media (ATCC, cat. CRL-3276), 1.25 mM N-Acetyl-L-cysteine (Sigma-Aldrich, cat. A9165), 10 mM nicotinamide (Sigma-Aldrich, cat. N0636), 1X B-27 supplement (Thermo Fisher Scientific, cat. 17504044), 1X N-2 supplement (Thermo Fisher Scientific, cat. 17502048), 10 microM Y-27632 dihydrochloride (Tocris Bioscience, cat. 1254), and 50 ng/mL human EGF recombinant protein (Thermo Fisher Scientific, cat. PHG0311). The 485176-168-R4-J1-PDC line was cultured in Panc media, which includes all 6C/Colon 1B media components plus 100 ng/mL human FGF-10 (Thermo Fisher Scientific, cat. 100-26), 500 nM SB-431542 (Selleckchem, cat. S1067), and gastrin (Tocris, cat. 3006).
[…]
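Further: spheroids exposed to compounds for seven days before readout.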
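Wherever viability, T/C is given: percent viability relative to DMSO vehicle control wells as 100%.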

SMILES: O=c1[nH]cc(F)c(=O)[nH]1
- viability, T/C (compound 0.0316 µM): 95.9% and 97.3% and 84.9%
- viability, T/C (compound 0.1 µM): 85.5% and 91% and 89.7%
- viability, T/C (compound 0.316 µM): 79.7% and 75.4% and 64%
- viability, T/C (compound 1 µM): 56.6% and 60.5% and 59.2%
- viability, T/C (compound 3.16 µM): 48.2% and 46.2% and 45.4%
- viability, T/C (compound 10 µM): 46.8% and 46.7% and 54.9%
- IC50 (curve of compound): 2.61 µM and 2.75 µM and > 10 µM

SMILES: CC(=O)O[C@H]1C(=O)[C@@]2(C)[C@H]([C@H](OC(=O)c3ccccc3)[C@]3(O)C[C@H](OC(=O)[C@H](O)[C@@H](NC(=O)c4ccccc4)c4ccccc4)C(C)=C1C3(C)C)[C@]1(OC(C)=O)CO[C@@H]1C[C@@H]2O
- viability, T/C (compound 0.0316 µM): 33.5% and 33.7% and 29.3%
- viability, T/C (compound 0.1 µM): 10.2% and 14.9% and 9.73%
- viability, T/C (compound 0.316 µM): 12.3% and 11.3% and 10.6%
- viability, T/C (compound 1 µM): 10.9% and 13.4% and 9.36%
- viability, T/C (compound 3.16 µM): 11% and 13.5% and 10.1%
- viability, T/C (compound 10 µM): 13.7% and 11.4% and 9.37%
- IC50 (curve of compound): < 0.0316 µM

SMILES: C#Cc1c(F)ccc2cc(O)cc(-c3ncc4c(N5CC6CCC(C5)N6)nc(OCC56CCCN5CC(F)C6)nc4c3F)c12 (stereo unspecified) + CN(C)c1ccc(Nc2c3ccc(NC(=O)CCN4CCCC4)cc3nc3cc(NC(=O)CCN4CCCC4)ccc23)cc1
- IC50 (curve of first compound, second compound 0.0316 µM): > 10 µM
- IC50 (curve of first compound, second compound 0.1 µM): > 10 µM
- IC50 (curve of first compound, second compound 0.316 µM): > 10 µM
- IC50 (curve of first compound, second compound 1 µM): > 10 µM
- IC50 (curve of first compound, second compound 3.16 µM): > 10 µM
- IC50 (curve of first compound, second compound 10 µM): > 10 µM
- viability, T/C (second compound 0.0316 µM, first compound 0.0316 µM): 119%
- viability, T/C (second compound 0.0316 µM, first compound 0.1 µM): 106%
- viability, T/C (second compound 0.0316 µM, first compound 0.316 µM): 103%
- viability, T/C (second compound 0.0316 µM, first compound 1 µM): 106%
- viability, T/C (second compound 0.0316 µM, first compound 3.16 µM): 95.6%
- viability, T/C (second compound 0.0316 µM, first compound 10 µM): 98.2%
- viability, T/C (second compound 0.1 µM, first compound 0.0316 µM): 112%
- viability, T/C (second compound 0.1 µM, first compound 0.1 µM): 99.5%
- viability, T/C (second compound 0.1 µM, first compound 0.316 µM): 91.9%
- viability, T/C (second compound 0.1 µM, first compound 1 µM): 97.9%
- viability, T/C (second compound 0.1 µM, first compound 3.16 µM): 120%
- viability, T/C (second compound 0.1 µM, first compound 10 µM): 116%
- viability, T/C (second compound 0.316 µM, first compound 0.0316 µM): 97.4%
- viability, T/C (second compound 0.316 µM, first compound 0.1 µM): 81.8%
- viability, T/C (second compound 0.316 µM, first compound 0.316 µM): 105%
- viability, T/C (second compound 0.316 µM, first compound 1 µM): 102%
- viability, T/C (second compound 0.316 µM, first compound 3.16 µM): 95.5%
- viability, T/C (second compound 0.316 µM, first compound 10 µM): 85.5%
- viability, T/C (second compound 1 µM, first compound 0.0316 µM): 91.6%
- viability, T/C (second compound 1 µM, first compound 0.1 µM): 90.8%
- viability, T/C (second compound 1 µM, first compound 0.316 µM): 99.3%
- viability, T/C (second compound 1 µM, first compound 1 µM): 111%
- viability, T/C (second compound 1 µM, first compound 3.16 µM): 94.6%
- viability, T/C (second compound 1 µM, first compound 10 µM): 94.3%
- viability, T/C (second compound 3.16 µM, first compound 0.0316 µM): 113%
- viability, T/C (second compound 3.16 µM, first compound 0.1 µM): 96.2%
- viability, T/C (second compound 3.16 µM, first compound 0.316 µM): 103%
- viability, T/C (second compound 3.16 µM, first compound 1 µM): 94.4%
- viability, T/C (second compound 3.16 µM, first compound 3.16 µM): 99.4%
- viability, T/C (second compound 3.16 µM, first compound 10 µM): 78.2%
- viability, T/C (second compound 10 µM, first compound 0.0316 µM): 89.8%
- viability, T/C (second compound 10 µM, first compound 0.1 µM): 104%
- viability, T/C (second compound 10 µM, first compound 0.316 µM): 82.5%
- viability, T/C (second compound 10 µM, first compound 1 µM): 91.9%
- viability, T/C (second compound 10 µM, first compound 3.16 µM): 70.8%
- viability, T/C (second compound 10 µM, first compound 10 µM): 54.3%
